{
  "source": "patent US20080213385A1",
  "about": "“Formulations for 7- (T-Butoxy) Iminomethyl Camptothecin” (priority 2005, published 2008)",
  "key": {"[1]": {"assay": "In vitro dissolution rate testing (USP2 apparatus, paddle)", "format": "physicochemical", "settings": "50 rpm, 37° C., 0.3% SDS in 1,000 mL water", "protocol": "The dissolution rate testing was done using an USP2 apparatus, paddle, 50 rpm, 37° C., 0.3% SDS in 1,000 mL water, n=3. For dissolution rate testing, the aqueous suspensions were diluted 1:5 with water and filled into vials (0.5 mg drug substance/vial)."}, "[2]": {"assay": "Particle size distribution by laser light scattering", "format": "physicochemical", "settings": "after milling (unmilled for unmilled drug)", "protocol": "The aqueous nano-milling was performed in a ball mill using yittrium […] zirconia beads (0.5-0.6 mm in 0). For all trials the batch size was approximately 70 g. Prior to milling the beads were conditioned with 1% stabilizer solution for 24 hours at 1,200 rpm (minimal speed, 80 mL solution for 160 mL beads), rinsed with demineralized water until conductivity reading was the same as that of the water, placed in a 150-200° C. oven until dry and cooled to room temperature before use. Milling was performed at 3,200 rpm and milling times as outlined in Table 1 were used. Before and after milling the aqueous suspensions were characterized with respect to particle size distribution, appearance (microscopic pictures and laser light scattering), and dissolution rate and assay/degradation."}},
  "data": [
    {"smiles": "CC[C@@]1(O)C(=O)OCc2c1cc1n(c2=O)Cc2c-1nc1ccccc1c2/C=N/OC(C)(C)C", "note": "[Unmilled drug, 7-t-butoxyiminomethylcamptothecin]", "values": [
      {"measurement": "Dissolution rate: % released, mean (n = 3), after 15 min", "setting": "[1]; 0.5 mg drug substance/vial, 15 min", "result": 3, "unit": "%"},
      {"measurement": "Dissolution rate: % released, mean (n = 3), after 30 min", "setting": "[1]; 30 min", "result": 5, "unit": "%"},
      {"measurement": "Dissolution rate: % released, mean (n = 3), after 60 min", "setting": "[1]; 60 min", "result": 15, "unit": "%"},
      {"measurement": "Dissolution rate: % released, mean (n = 3), after 120 min", "setting": "[1]; 120 min", "result": 31, "unit": "%"},
      {"measurement": "PSD (light scattering, after milling) x10", "setting": "[2]", "result": "x10 = 2 μm"},
      {"measurement": "PSD (light scattering, after milling) x50", "setting": "[2]", "result": "x50 = 9 μm"},
      {"measurement": "PSD (light scattering, after milling) x90", "setting": "[2]", "result": "x90 = 35 μm"}
    ]}
  ]
}
